Patent publication US20260130395A1, “Water Dispersible Botanical Compositions” (Aquila Black Limited, priority 2021, published 2026)

Test: Stability of cannabinoid compounds and Vitamin E components in Beverage 1 (AB White) by LCMSMS
Assay type: physicochemical
Conditions: for Stability of Plant-Derived Cannabinoid Compounds in AB White, 8° C.: AB White stored at 8° C.; for Stability of Plant-Derived Cannabinoid Compounds in AB White, 21-25° C.: AB White stored at 21-25° C.

CCCCCc1cc(O)c2c(c1)OC1(C)CCC3C1C2C3(C)C (centres unmarked) [CBL, cannabicyclol]
Stability of Plant-Derived Cannabinoid Compounds in AB White, 8° C. (0 days): 0.550 µg/mL | Stability of Plant-Derived Cannabinoid Compounds in AB White, 8° C. (1 days): 0.541 µg/mL | Stability of Plant-Derived Cannabinoid Compounds in AB White, 8° C. (2 days): 0.542 µg/mL | Stability of Plant-Derived Cannabinoid Compounds in AB White, 8° C. (3 days): 0.553 µg/mL | Stability of Plant-Derived Cannabinoid Compounds in AB White, 8° C. (5 days): 0.552 µg/mL | Stability of Plant-Derived Cannabinoid Compounds in AB White, 8° C. (8 days): 0.537 µg/mL | Stability of Plant-Derived Cannabinoid Compounds in AB White, 8° C. (9 days): 0.535 µg/mL | Stability of Plant-Derived Cannabinoid Compounds in AB White, 8° C. (10 days): 0.544 µg/mL | Stability of Plant-Derived Cannabinoid Compounds in AB White, 8° C. (11 days): 0.544 µg/mL | Stability of Plant-Derived Cannabinoid Compounds in AB White, 8° C. (12 days): 0.553 µg/mL | Stability of Plant-Derived Cannabinoid Compounds in AB White, 8° C. (15 days): 0.534 µg/mL | Stability of Plant-Derived Cannabinoid Compounds in AB White, 8° C. (16 days): 0.546 µg/mL | Stability of Plant-Derived Cannabinoid Compounds in AB White, 8° C. (17 days): 0.540 µg/mL | Stability of Plant-Derived Cannabinoid Compounds in AB White, 8° C. (18 days): 0.536 µg/mL | Stability of Plant-Derived Cannabinoid Compounds in AB White, 8° C. (19 days): 0.537 µg/mL | Stability of Plant-Derived Cannabinoid Compounds in AB White, 8° C. (22 days): 0.555 µg/mL | Stability of Plant-Derived Cannabinoid Compounds in AB White, 8° C. (23 days): 0.545 µg/mL | Stability of Plant-Derived Cannabinoid Compounds in AB White, 8° C. (24 days): 0.548 µg/mL | Stability of Plant-Derived Cannabinoid Compounds in AB White, 8° C. (25 days): 0.540 µg/mL | Stability of Plant-Derived Cannabinoid Compounds in AB White, 8° C. (26 days): 0.534 µg/mL | Stability of Plant-Derived Cannabinoid Compounds in AB White, 8° C. (29 days): 0.547 µg/mL | Stability of Plant-Derived Cannabinoid Compounds in AB White, 8° C. (30 days): 0.544 µg/mL | Stability of Plant-Derived Cannabinoid Compounds in AB White, 8° C. (60 days): 0.543 µg/mL | Stability of Plant-Derived Cannabinoid Compounds in AB White, 8° C. (90 days): 0.527 µg/mL | Stability of Plant-Derived Cannabinoid Compounds in AB White, 8° C. (120 days): 0.534 µg/mL | Stability of Plant-Derived Cannabinoid Compounds in AB White, 8° C. (150 days): 0.540 µg/mL | Stability of Plant-Derived Cannabinoid Compounds in AB White, 8° C. (180 days): 0.542 µg/mL | Stability of Plant-Derived Cannabinoid Compounds in AB White, 8° C. (210 days): 0.534 µg/mL | Stability of Plant-Derived Cannabinoid Compounds in AB White, 8° C. (240 days): 0.535 µg/mL | Stability of Plant-Derived Cannabinoid Compounds in AB White, 8° C. (270 days): 0.539 µg/mL | Stability of Plant-Derived Cannabinoid Compounds in AB White, 8° C. (300 days): 0.526 µg/mL | Stability of Plant-Derived Cannabinoid Compounds in AB White, 8° C. (330 days): 0.543 µg/mL | Stability of Plant-Derived Cannabinoid Compounds in AB White, 8° C. (360 days): 0.533 µg/mL | Stability of Plant-Derived Cannabinoid Compounds in AB White, 8° C. (390 days): 0.535 µg/mL | Stability of Plant-Derived Cannabinoid Compounds in AB White, 8° C. (420 days): 0.526 µg/mL | Stability of Plant-Derived Cannabinoid Compounds in AB White, 8° C. (450 days): 0.532 µg/mL | Stability of Plant-Derived Cannabinoid Compounds in AB White, 8° C. (480 days): 0.521 µg/mL | Stability of Plant-Derived Cannabinoid Compounds in AB White, 8° C. (510 days): 0.514 µg/mL | Stability of Plant-Derived Cannabinoid Compounds in AB White, 8° C. (540 days): 0.514 µg/mL | Stability of Plant-Derived Cannabinoid Compounds in AB White, 8° C. (570 days): 0.503 µg/mL | Stability of Plant-Derived Cannabinoid Compounds in AB White, 21-25° C. (0 days): 0.550 µg/mL | Stability of Plant-Derived Cannabinoid Compounds in AB White, 21-25° C. (1 days): 0.539 µg/mL | Stability of Plant-Derived Cannabinoid Compounds in AB White, 21-25° C. (2 days): 0.540 µg/mL | Stability of Plant-Derived Cannabinoid Compounds in AB White, 21-25° C. (3 days): 0.543 µg/mL | Stability of Plant-Derived Cannabinoid Compounds in AB White, 21-25° C. (5 days): 0.530 µg/mL | Stability of Plant-Derived Cannabinoid Compounds in AB White, 21-25° C. (8 days): 0.542 µg/mL | Stability of Plant-Derived Cannabinoid Compounds in AB White, 21-25° C. (9 days): 0.535 µg/mL | Stability of Plant-Derived Cannabinoid Compounds in AB White, 21-25° C. (10 days): 0.546 µg/mL | Stability of Plant-Derived Cannabinoid Compounds in AB White, 21-25° C. (11 days): 0.552 µg/mL | Stability of Plant-Derived Cannabinoid Compounds in AB White, 21-25° C. (12 days): 0.529 µg/mL | Stability of Plant-Derived Cannabinoid Compounds in AB White, 21-25° C. (15 days): 0.548 µg/mL | Stability of Plant-Derived Cannabinoid Compounds in AB White, 21-25° C. (16 days): 0.537 µg/mL | Stability of Plant-Derived Cannabinoid Compounds in AB White, 21-25° C. (17 days): 0.554 µg/mL | Stability of Plant-Derived Cannabinoid Compounds in AB White, 21-25° C. (18 days): 0.554 µg/mL | Stability of Plant-Derived Cannabinoid Compounds in AB White, 21-25° C. (19 days): 0.552 µg/mL | Stability of Plant-Derived Cannabinoid Compounds in AB White, 21-25° C. (22 days): 0.547 µg/mL | Stability of Plant-Derived Cannabinoid Compounds in AB White, 21-25° C. (23 days): 0.530 µg/mL | Stability of Plant-Derived Cannabinoid Compounds in AB White, 21-25° C. (24 days): 0.546 µg/mL | Stability of Plant-Derived Cannabinoid Compounds in AB White, 21-25° C. (25 days): 0.532 µg/mL | Stability of Plant-Derived Cannabinoid Compounds in AB White, 21-25° C. (26 days): 0.549 µg/mL | Stability of Plant-Derived Cannabinoid Compounds in AB White, 21-25° C. (29 days): 0.552 µg/mL | Stability of Plant-Derived Cannabinoid Compounds in AB White, 21-25° C. (30 days): 0.543 µg/mL | Stability of Plant-Derived Cannabinoid Compounds in AB White, 21-25° C. (60 days): 0.544 µg/mL | Stability of Plant-Derived Cannabinoid Compounds in AB White, 21-25° C. (90 days): 0.541 µg/mL | Stability of Plant-Derived Cannabinoid Compounds in AB White, 21-25° C. (120 days): 0.516 µg/mL | Stability of Plant-Derived Cannabinoid Compounds in AB White, 21-25° C. (150 days): 0.517 µg/mL | Stability of Plant-Derived Cannabinoid Compounds in AB White, 21-25° C. (180 days): 0.527 µg/mL | Stability of Plant-Derived Cannabinoid Compounds in AB White, 21-25° C. (210 days): 0.514 µg/mL | Stability of Plant-Derived Cannabinoid Compounds in AB White, 21-25° C. (240 days): 0.515 µg/mL | Stability of Plant-Derived Cannabinoid Compounds in AB White, 21-25° C. (270 days): 0.535 µg/mL | Stability of Plant-Derived Cannabinoid Compounds in AB White, 21-25° C. (300 days): 0.532 µg/mL | Stability of Plant-Derived Cannabinoid Compounds in AB White, 21-25° C. (330 days): 0.526 µg/mL | Stability of Plant-Derived Cannabinoid Compounds in AB White, 21-25° C. (360 days): 0.526 µg/mL | Stability of Plant-Derived Cannabinoid Compounds in AB White, 21-25° C. (390 days): 0.518 µg/mL | Stability of Plant-Derived Cannabinoid Compounds in AB White, 21-25° C. (420 days): 0.523 µg/mL | Stability of Plant-Derived Cannabinoid Compounds in AB White, 21-25° C. (450 days): 0.521 µg/mL | Stability of Plant-Derived Cannabinoid Compounds in AB White, 21-25° C. (480 days): 0.510 µg/mL | Stability of Plant-Derived Cannabinoid Compounds in AB White, 21-25° C. (510 days): 0.503 µg/mL | Stability of Plant-Derived Cannabinoid Compounds in AB White, 21-25° C. (540 days): 0.510 µg/mL | Stability of Plant-Derived Cannabinoid Compounds in AB White, 21-25° C. (570 days): 0.505 µg/mL
